Assay results reported in patent publication US12187672B2, “1,2-diacylglycerol compound, preparation method therefor, and immunomodulator containing same as active ingredient” (ENZYCHEM LIFESCIENCES CORPORATION, priority 2018, dated 2025).

Columns and labels:
IL-4 = assay: PKC activator-induced IL-4 secretion reduction in EL-4 cells (ELISA); type: cell-based, mouse; settings: for IL-4 concentration (average ± deviation): sample 100 μg/ml 2 h, then PKC activator 18 h; for decrease of IL-4 secretion/expression: PKC activator-treated, 100 μg/ml
Method: In DMEM (Dulbecco Modified Eagle Medium, Hyclone, Thermo Scientific) medium to which 10% Fetal Bovine Serum was added, EL-4 cells, a mouse lymphoma family, were subcultured at a concentration of 1×10^5 cells/ml, and culture was conducted in a 5% CO2 humidified incubator at 37° C. The cultured EL-4 cells were inoculated into a 48 well plate by 5×10^4 cells/ml and stabilized for 30 hours. Then, the culture solution was treated with a glycerol derivative compounds of the type shown in Table 11 and 12 below for 2 hours. Thereafter, it were treated with 0.5 μg/ml of PKC activator (p10, some kind of PMA) of a cell stimulator, and subsequent further incubation were conducted for 18 hours. Thereafter 0.5 ml of the culture supernatant was collected for each well and centrifuged (at 3000 rpm, 5 minutes) to recover the supernatant. The IL-4 level in the recovered supernatant was measured according to the manual provided by the Mouse IL-4 ELISA set (BD Biosciences). The day before ELISA was carried out, the IL-4 capture antibody was diluted in phosphate buffered saline, coated on a microwell, and then stored at 4° C. overnight. Each well was washed three times with a buffer solution and then blocked with 2% Bovine Serum Albumin (BSA) for 1 hour at room temperature. After washing with buffer solution three times, 100 μl of sample was dispensed into each well and left at room temperature for 2 hours. Detection antibody which was washed 3 times with washing buffer solution and diluted was dispensed into each well and allowed to react at room temperature for 1 hour and left at room temperature for 1 hour. Thereafter, the secondary HRP conjugated antibody was reacted at room temperature for 30 minutes, washed three times with buffer solution, and treated with 50 μl of stop solution for each well, and then the optical density was measured at 450 nm with an ELISA microplate leader. The results of the measured expression reduction rate ([…]) were shown in Table 11, Table 12, FIG. 11 and FIG. 12 below.

STAT3 = STAT3 activity, pGL4.47 SIE luciferase reporter in LPS-treated RAW264.7 cells; type: cell-based, mouse; settings: sample 100 μg/ml 1 h, then LPS 1 μg/ml 18 h
Method: pGL4.47 [luc2P/SIE/Hygro] vector containing the sis-Inducible Element that binds to STAT3 was injected into RAW264.7 cells to confirm the degree of STAT3 activity. In DMEM (Hyclone, Thermo Scientific) medium to which 10% Fetal Bovine Serum was added, RAW264.7 cells were cultured at a concentration of 1×10^5 cells/ml, and maintained in a 5% CO2 humidified incubator at 37° C. The cultured RAW264.7 cells were inoculated into a 48 well plate by 1×10^5 cells/ml and stabilized for 18 hours. Thereafter, the pGL4.47 [luc2P/SIE/Hygro] vector containing sis-Inducible Element was mixed with Attractene to induce complex formation at room temperature for 15 minutes. This complex was treated with the cells and then further incubated for 18 hours. Thereafter, the culture solution was treated with a glycerol derivative compounds of the type shown in Table 5 below for 1 hour and then LPS (1 μg/ml) was treated and further incubated for 18 hours for STAT3 activity. Thereafter, the culture supernatant was removed for each well, and the remaining cells were lysed with a cell lysis buffer, and then cell lysate was recovered. 90 μl of luciferase reagent was mixed with 10 μl of the recovered cell lysate, and the degree of fluorescence was confirmed using a luminometer.

HL-60 cells = assay: Migration of HL-60 cell line toward THP-1 culture supernatant (transmigration assay); type: cell-based, human; settings: supernatant of THP-1 cells treated with sample 100 μg/ml 1 h, then Gemcitabine 2 μg/ml 24 h
Procedure, shortened: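 THP-1 cells pretreated 1 h with compounds, then stimulated with gemcitabine (2 μg/ml) for 24 h; supernatant placed in lower chamber. HL-60 cells (5×10^4/chamber) migrated through laminin I-coated upper chamber; migrated cells quantified by Calcein-AM fluorescence converted to cell number.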

CXCL8 (IL-8) = CXCL8 (IL-8) expression reduction in Gemcitabine-treated THP-1 cells (ELISA); type: cell-based, human; settings: THP-1 cells; for reduction of CXCL8 (IL-8) expression/secretion: Gemcitabine-treated, 100 μg/ml; for CXCL8 [IL-8] concentration (average ± deviation): sample 100 μg/ml 1 h, then Gemcitabine 2 μg/ml 24 h
Procedure, shortened: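 Human THP-1 macrophage-like cells in RPMI/10% FBS, plated at 1×10^6 cells/ml, pretreated 1 h with compound, then stimulated with Gemcitabine (2 μg/ml) for 24 h at 37° C, 5% CO2. Secreted IL-8 in the supernatant was measured by sandwich ELISA, read at 450 nm.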

| Compound | IL-4 concentration (average ± deviation) (IL-4; Table 11) [pg/µL] | IL-4 concentration (average ± deviation) (IL-4; Table 12) [pg/µL] | STAT3 activity_Luciferase activity (average ± deviation) (STAT3) | Number of HL-60 cells migrated through Transwell (HL-60 cells) [Cell Number] | reduction of CXCL8 (IL-8) expression/secretion (CXCL8 (IL-8)) | CXCL8 [IL-8] concentration (average ± deviation) (CXCL8 (IL-8)) [pg/µL] | decrease of IL-4 secretion/expression (IL-4) |
| --- | --- | --- | --- | --- | --- | --- | --- |
| CCCCC/C=C\C/C=C\CCCCCCCC(=O)OC(COC(C)=O)COC(=O)CCCCCCCCCCCCCCC (stereo not shown) [EC-18, 1-palmitoyl-2-linoleoyl-3-acetylglycerol, reference compound] | 662.4 ± 42.4 | 429.2 ± 7.0 | 491.5 ± 41.7 | 2697.2 | about 20% | 79.6 ± 6.0 | – |
| CCCCC/C=C\C/C=C\CCCCCCCC(=O)OC(COC(=O)CCCCCCCCCCCCCCC)COC(C)C (stereo not shown) [EC_A21] | 488.8 ± 46.2 | – | – | 1986.3 | about 20% | 86.2 ± 0.7 | – |
| CCCCC/C=C\C/C=C\CCCCCCCC(=O)OC(COC(=O)CC)COC(=O)CCCCCCCCCCCCCCC (stereo not shown) [EC_A78] | – | 557 ± 11.5 | 912.5 ± 214.2 | 23396.6 | – | 108.5 ± 4.9 | – |
| CCCCC/C=C\C/C=C\CCCCCCCC(=O)OC(COC(=O)CCCCCCCCCCCCCCC)COC(=O)C1CC1 (stereo not shown) [EC_A79] | – | 527 ± 17.9 | 1183.5 ± 51.6 | 12527.5 | – | 108.7 ± 8.3 | – |
| CCCCC/C=C\C/C=C\CCCCCCCC(=O)OC(COC(=O)CCCCCC)COC(=O)CCCCCCCCCCCCCCC (stereo not shown) [EC_A83] | – | 637.9 ± 14.1 | 510.2 ± 27.2 | 7316.6 | – | 107.7 ± 3.9 | – |
| CCCCC/C=C\C/C=C\CCCCCCCC(=O)OC(COC(=O)CCC)COC(=O)CCCCCCC (stereo not shown) [EC_A85] | – | 485.1 ± 19.2 | 1126.7 ± 32.1 | 7687.7 | – | 94.4 ± 3.4 | about 20% |
| CCCCC/C=C\C/C=C\CCCCCCCC(=O)OC(COC(=O)CCCC)COC(=O)CCCCCCC (stereo not shown) [EC_A86] | – | 476.0 ± 2.5 | 866.2 ± 15.2 | 18542.0 | – | 99.2 ± 4.9 | about 20% |
| CCCCC/C=C\C/C=C\CCCCCCCC(=O)OC(COC(=O)CC)COC(=O)CCCCCCC (stereo not shown) [EC_A87] | – | 511.0 ± 0.6 | 1312 ± 34.6 | 7198.0 | – | 134.4 ± 10.7 | about 20% |
| CCCCC/C=C\C/C=C\CCCCCCCC(=O)OC(COC(=O)CCCCCCC)COC(=O)C(C)C (stereo not shown) [EC_A88] | – | 654.7 ± 0.6 | 1171.5 ± 146.3 | 17552.5 | – | 91.4 ± 3.4 | – |
| CCCCCC=CCC=CCCCCCCCC(=O)OC(COC(=O)CCCCCCC)COC(=O)C(C)(C)C (stereo not shown) [EC_A89] | – | 620.1 ± 22.4 | 1087.7 ± 257.7 | 6969.9 | – | 123.1 ± 0.0 | – |
| CCCCC/C=C\C/C=C\CCCCCCCC(=O)OC(COC(=O)CC)COC(=O)CCCCCCCCCCC (stereo not shown) [EC_A91] | – | 446.0 ± 16.7 | 746.5 ± 26.1 | 9429.8 | – | 96.1 ± 3.6 | about 20% |
| CCCCC/C=C\C/C=C\CCCCCCCC(=O)OC(COC(=O)CCC)COC(=O)CCCCCCCCCCC (stereo not shown) [EC_A92] | – | 498.3 ± 45.6 | 820 ± 448.3 | 2891.6 | – | 105.1 ± 0.2 | about 20% |
| CCCCC/C=C\C/C=C\CCCCCCCC(=O)OC(COC(=O)CCCC)COC(=O)CCCCCCCCCCC (stereo not shown) [EC_A93] | – | 507.9 ± 3.85 | 536.2 ± 222.3 | 6828.6 | – | 110.9 ± 0.0 | about 20% |
| CCCCC/C=C\C/C=C\CCCCCCCC(=O)OC(COC(=O)CCCCCCCCCCC)COC(=O)C(C)CC (stereo not shown) [EC_A96] | – | 582.9 ± 17.3 | 1136.7 ± 63.9 | 15110.8 | – | 103.7 ± 5.4 | – |
| CCCCC/C=C\C/C=C\CCCCCCCC(=O)OC(COC(=O)CC)COC(=O)CCCCCCCCC (stereo not shown) [EC_A97] | – | 541.5 ± 20.5 | 573.2 ± 146.7 | 7440.6 | – | 96.2 ± 0.2 | – |
| CCCCC/C=C\C/C=C\CCCCCCCC(=O)OC(COC(=O)CCC)COC(=O)CCCCCCCCC (stereo not shown) [EC_A98] | – | 584.2 ± 50.1 | 370.7 ± 35.0 | 11056.8 | – | 105 ± 2.0 | – |
| CCCCC/C=C\C/C=C\CCCCCCCC(=O)OC(COC(=O)CCCC)COC(=O)CCCCCCCCC (stereo not shown) [EC_A99] | – | 553.3 ± 39.8 | 353.2 ± 83.0 | 7164.9 | – | 102.0 ± 19.3 | – |
| CCCCC/C=C\C/C=C\CCCCCCCC(=O)OC(COC(=O)CCCCCCCCC)COC(=O)C(C)C (stereo not shown) [EC_A100] | – | 539.7 ± 6.4 | 572.2 ± 60.4 | 8947.2 | – | 115.1 ± 3.9 | – |
| CCCCC/C=C\C/C=C\CCCCCCCC(=O)OC(COC(=O)CCCCCCCCC)COC(=O)C(C)(C)C (stereo not shown) [EC_A101] | – | 634.7 ± 3.21 | 581.7 ± 8.1 | 4848.9 | – | 118.1 ± 2.8 | – |
| CCCCC/C=C\C/C=C\CCCCCCCC(=O)OC(COC(=O)CCCCCCCCC)COC(=O)C(C)CC (stereo not shown) [EC_A102] | – | 775.1 ± 11.5 | 602 ± 11.3 | 8091.5 | – | 102.5 ± 4.4 | – |
